Broadly, the IC50 is the concentration that inhibits the measured activity by half. Low values mean greater potency in that assay, high ones weaker potency in that assay.

We go through one compound from paper PMC10991105 (Bioresources and Bioprocessing, 2024).

For the assay, the target named is T1, tyrosinase.
T1 construct: gene PPO1; tyrosinase of unstated source and supplier
In words: L-tyrosine oxidation, absorbance at […] nm. In kind it is biochemical. Particulars: L-tyrosine substrate (0.1 mg/mL stock, 40 μL in 200 μL); PBS; 37 °C; 30 min.

Regarding `CCCCCCCCCCCC(=O)OC[C@H]1O[C@H](Oc2ccc(O)cc2)[C@H](O)[C@@H](O)[C@@H]1O` [6′-O-lauroylarbutin], the IC50 was 35 µM. In other words, the double-digit micromolar range.
